In ChEMBL document CHEMBL1201862, “PubChem BioAssay data set” (2004):
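Compound exposure: 48 hours, 5 concentrations, 96-well plates. Here, GI50 denotes the concentration required for 50% inhibition of growth.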 Activity calls are given as the source filed them. Rule as the data show it: active = GI50 up to about 1.1 µM and inactive = higher.

Columns and labels:
Assay in all cases: DTP human tumour cell line panel, 48 h
786-0 = system: 786-0
A498 = system: A498
ACHN = system: ACHN
CAKI-1 = system: CAKI-1
HCT-116 = system: HCT-116
HT-29 = system: HT-29
M14 = system: M14
NCI-H226 = system: NCI-H226
NCI/ADR-RES = system: NCI/ADR-RES
PC-3 = system: PC-3
RXF 393 = system: RXF 393
SF-295 = system: SF-295
SF-539 = system: SF-539
SK-MEL-28 = system: SK-MEL-28
SK-MEL-2 = system: SK-MEL-2
SR = system: SR
UACC-62 = system: UACC-62
Hs-578T = system: Hs-578T
T47D = system: T47D

Measured: GI50

[O-][n+]1c(CN2CCCCC2)nc2cccc3c2c1-c1ccccc1-3
inactive: 786-0 16.7 µM | A498 18.2 µM | ACHN 18.6 µM | CAKI-1 25.4 µM | HCT-116 12.8 µM | HT-29 17.3 µM | M14 15.9 µM | NCI-H226 16.9 µM | NCI/ADR-RES 22.4 µM | PC-3 31.3 µM | RXF 393 13.7 µM | SF-295 28.7 µM | SF-539 23.9 µM | SK-MEL-28 68.5 µM | SK-MEL-2 23 µM | SR 43.5 µM | UACC-62 16.4 µM

OCC1NCC(O)C(O)C1O (configuration not stated)
inactive: 786-0 > 100 µM | A498 > 100 µM | ACHN > 100 µM | CAKI-1 > 100 µM | HCT-116 > 100 µM | HT-29 > 100 µM | Hs-578T > 100 µM | M14 > 100 µM | PC-3 > 100 µM | RXF 393 > 100 µM | SF-295 > 10 µM | SF-539 > 100 µM | SK-MEL-28 > 100 µM | SR > 100 µM | UACC-62 > 100 µM

COc1ccc2c(C)cc(C)nc2n1
inactive: 786-0 > 100 µM | A498 > 100 µM | ACHN > 100 µM | CAKI-1 > 100 µM | HCT-116 > 100 µM | HT-29 > 100 µM | M14 > 100 µM | NCI/ADR-RES > 100 µM | PC-3 > 100 µM | RXF 393 > 100 µM | SF-295 > 100 µM | SK-MEL-28 > 100 µM | SK-MEL-2 > 100 µM | SR > 100 µM | T47D > 100 µM | UACC-62 > 100 µM

COC(=O)c1c(C(=O)OC)c2ccc(-c3ccc(Cl)cc3)nn2c1C(=O)c1ccc([N+](=O)[O-])cc1
inactive: 786-0 39.4 µM | A498 > 100 µM | ACHN 43 µM | CAKI-1 32.9 µM | HCT-116 27.2 µM | HT-29 37.2 µM | M14 40.6 µM | NCI-H226 > 100 µM | NCI/ADR-RES > 100 µM | PC-3 > 100 µM | RXF 393 8.83 µM | SF-295 > 100 µM | SF-539 44.4 µM | SK-MEL-28 > 100 µM | SK-MEL-2 34.8 µM | T47D 27.9 µM | UACC-62 > 100 µM

NC1CC=C(COC(=O)C(O)(c2ccccc2)C2CC2)CC1 (configuration not stated)
inactive: 786-0 > 100 µM | ACHN > 100 µM | CAKI-1 > 100 µM | HCT-116 > 100 µM | HT-29 > 100 µM | M14 > 100 µM | NCI-H226 > 100 µM | NCI/ADR-RES > 100 µM | PC-3 > 100 µM | RXF 393 > 100 µM | SF-295 > 100 µM | SF-539 > 100 µM | SK-MEL-28 > 100 µM | SR > 100 µM | T47D > 100 µM | UACC-62 > 100 µM

Nc1n[nH]c2nc3ccc(C(F)(F)F)cc3nc12
inactive: 786-0 21 µM | A498 33 µM | ACHN 25.1 µM | CAKI-1 31.5 µM | HCT-116 24.7 µM | HT-29 29.8 µM | Hs-578T 28.5 µM | M14 33.3 µM | NCI/ADR-RES 33.4 µM | PC-3 25.9 µM | RXF 393 16.4 µM | SF-295 24.5 µM | SK-MEL-28 21.1 µM | SK-MEL-2 23.3 µM | SR 49.4 µM | UACC-62 21 µM

CCN(CC)c1ccc2c(c1)OC(=O)C(c1nnc(-c3ccc([N+](=O)[O-])cc3)o1)C2 (configuration not stated)
inactive: 786-0 > 100 µM | A498 > 100 µM | ACHN > 100 µM | CAKI-1 > 100 µM | HCT-116 > 100 µM | HT-29 > 100 µM | Hs-578T > 100 µM | M14 > 100 µM | NCI-H226 > 100 µM | NCI/ADR-RES > 100 µM | PC-3 > 100 µM | RXF 393 > 100 µM | SF-295 > 100 µM | SK-MEL-28 > 100 µM | SK-MEL-2 > 100 µM | UACC-62 > 100 µM

C=C(C)C(=O)OC1CC2(C)OC(=CC2=O)C(C)CC2OC(=O)C(=C)C12 (configuration not stated)
inactive: 786-0 3.24 µM | A498 15.2 µM | ACHN 2.8 µM | CAKI-1 2.7 µM | HCT-116 1.75 µM | HT-29 3.92 µM | M14 5.48 µM | NCI-H226 19.1 µM | NCI/ADR-RES 8.95 µM | PC-3 14 µM | RXF 393 1.19 µM | SF-295 19 µM | SF-539 3.91 µM | SK-MEL-28 4.2 µM | SK-MEL-2 14.3 µM | SR 1.63 µM | T47D 4.57 µM | UACC-62 10.8 µM

Oc1ccc(-c2nc3ccc(F)cc3s2)cc1
inactive: 786-0 18.5 µM | ACHN 19.1 µM | CAKI-1 19.7 µM | HCT-116 18.2 µM | HT-29 15 µM | M14 20.4 µM | NCI-H226 18.6 µM | NCI/ADR-RES 21.1 µM | PC-3 21.4 µM | RXF 393 25.3 µM | SF-295 19.1 µM | SF-539 17.8 µM | SK-MEL-2 19.1 µM | SR 26.1 µM | T47D 15.1 µM | UACC-62 17.6 µM
